# In US6682545B1, “System and device for preventing restenosis in body vessels” (The Penn State Research Foundation, priority 1999, dated 2004):
# “Also recorded” adds a separate entry of the source.
# How the values were obtained:
# [1] = system: neointimal hyperplasia in rabbit carotid arteries; assay: Restenosis after balloon angioplasty with ceramide-coated embolectomy catheter balloon; type: in vivo, New Zealand white rabbits; details: rabbit carotid artery, 2 weeks post balloon injury
# Excerpt: Experiments were designed to evaluate the therapeutic potential of ceramide-coated embolectomy catheters upon restenosis after balloon angioplasty. Initial studies assessed the extent of restenosis in rabbit carotid arteries after balloon angioplasty as a function of time. Animals were sacrificed 1, 2, 4 and 6 weeks after balloon injury. Marked neointimal hyperplasia was observed as early as 1 week and peaked at 4 weeks (FIG. 2A). […] FIGS. 2B-E illustrate hematoxylin and eosin stained cryostat sections of rabbit carotid arteries. […] Furthermore, it may be theorized that the effects of ceramide are due to biochemical actions and not lipophilic properties.
# Initial experiments optimized the methods to induce restenosis after angioplasty in carotid arteries from New Zealand white rabbits. Twenty-one rabbits were divided into three experimental groups, undergoing either balloon angioplasty with a vehicle-treated catheter, a C6-ceramide-treated catheter or a dihydro-C6-ceramide-treated catheter. Each rabbit underwent identical procedures to denude the common carotid artery of endothelium and establish the cellular conditions to promote restenosis. The right common carotid served as the sham control while the left carotid served as the experimental side. […] FIG. 2A represents the time course of restenosis after angioplasty while FIGS. 2B-2E depict representative H/E stained sections. […] The scale for these photomicrographs is 200 microns. FIG. 2F quantifies the extent of restenotic lesions.
# [2] = Ceramide transfer from balloon catheter to carotid artery ([3H]C6-ceramide tracer, TLC, in situ autoradiography); type: in vivo, rabbit
# Method: The inability of experimentally effective therapies to succeed in clinical trials is often the consequence of sub-optimal doses of therapeutics being delivered to the site of injury for the appropriate duration. Moreover, the efficacy of therapy may be a consequence of biomechanical force transferring ceramide from the inflated balloon to the site of vascular lesions. Therefore, experiments were conducted to quantify ceramide transfer between the balloon and the carotid artery; the pharmacokinetics of ceramide transfer and delivery from the balloon catheter to the damaged artery was assessed. Using [^3H]C6-ceramide as a tracer, it was calculated that 70±10 nmol of C6-ceramide was applied to the balloon as a gel from a solution of 5 μmol of C6-ceramide. […] This translates to roughly 58 nmol of C6-ceramide being transferred from the balloon catheter during the angioplasty procedure. To test whether inflation of the balloon within the carotid artery was essential for optimal transfer of the ceramide, the surgical procedure was performed using noninflated balloons. The recovered ceramide mass on the inserted but noninflated balloon was 14±3 nmol. Rabbit carotid arteries treated with radiolabeled lipid were homogenized, and lipid products were separated by thin-layer chromatography (TLC) (FIG. 3A). The mass of intact ceramide isolated 15 minutes after angioplasty was 2.7±0.4 nmol for inflated balloon treatments and 0.7±0.2 nmol for noninflated balloon treatments. […] As the transferred ceramide was initially delivered to 0.0365 cm^3 of carotid artery luminal volume, the effective concentration of ceramide at the site of balloon injury is estimated to be 1.5 mmol/L. Thus, an effective and reproducible dose of ceramide can be delivered to the damaged artery as a consequence of the balloon inflation.
# In situ autoradiography was utilized to document arterial penetrance for [^3H]C6-ceramide transferred from the balloon catheter after angioplasty (FIGS. 3B through 3D). […] This increase in pixel intensity reflects an increase in intact ceramide, as at this time point 89±4% of the radiolabel comigrates with authentic C6-ceramide standards. Pixel intensity was more intense in inflated (panel C) versus noninflated (panel D) arteries. Expressed as pixel density per square millimeter for 10 randomly selected blocks with background values subtracted, medial staining was increased 4.7±0.2-fold for ceramide-coated inflated versus noninflated balloons. Again, this supports the conclusion that balloon inflation leads to maximal delivery and penetrance.
# The degradation of the rapidly intercalated radiolabeled ceramide by TLC was also assessed. For the 15-minute postangioplasty time point, 89±4% of the TLC-separated lipid comigrated with authentic C6-ceramide standards. This corresponded to a recovered mass of 2.7±0.4 mnol of ceramide. At 60 minutes after angioplasty, 1.3±0.6 nmol of ceramide was recovered. Thus, 50% radiolabel can still be recovered as intact ceramide in 1 hour. This decrease in ceramide mass corresponded to an increase in TLC-separated gangliosides and cerebrosides but not sphingosines.
# [3] = system: restenotic lesions after balloon angioplasty; assay: Restenosis after balloon angioplasty, ceramide delivered in solution by infusion-type catheter; type: in vivo
# Excerpt: It is noted that infusion-type catheters have the advantage to deliver ceramide in a BSA vehicle at a discrete dose to the site of arterial injury. It was thus determined whether ceramide delivered by solution using an infusion-type catheter is also effective in reducing restenosis as ceramide delivered using a catheter with a gel coated balloon tip. The balloon at the tip of a 4F arterial bilumen irrigation embolectomy catheter was inflated to a diameter equivalent to that of the earlier experiments. Three infusions of 10 μM C6-ceramide for 1 minute each reduced restenosis after balloon angioplasty by 39%. Dihydro-C6-ceramide at an equivalent dose had no effect upon restenotic lesions. These studies further support the novelty and efficacy of ceramide-coated balloon catheters as intra-arterial site-specific delivery devices.
# [4] = system: restenosis / thrombus formation; assay: Anticoagulation therapy (Lovenox) and thrombus formation with ceramide balloon angioplasty; type: in vivo; details: ceramide-treated balloon angioplasty
# Excerpt: To prevent thrombus formation, patients routinely receive anti-coagulants prior to percutaneous transluminal coronary angioplasty. Thus, the consequences of anticoagulation therapy on the effectiveness of ceramide therapy were investigated.
# [5] = system: PCNA positive vascular smooth muscle cells; assay: PCNA immunohistochemistry of carotid arteries after angioplasty; type: in vivo, rabbit; details: neointimal layer, coated balloon-injured carotid artery (balloon-injured 2.8%±0.1%, control 0.2%±0.1%)
# Excerpt: The effects of ceramide treatment upon VSM cell growth in vivo were also investigated. Imunohistochemical techniques were employed to identify VSM using smooth muscle cell-specific actin antibody (FIGS. 4A-B) and cell growth using proliferating cell nuclear antigen (PCNA) antibody (FIGS. 4C-F). […] PCNA is synthesized in early G1 and S phases of the cell cycle, and thus can be used as a marker for cell proliferation. In FIGS. 4C-F, representative photomicrographs depicting PCNA positive staining are shown for control, balloon-injured, ceramide-treated and dihydroceramide-treated carotid arteries, respectively. […] C6-ceramide (0.6%±0.2%) but not dihydro-C6-ceramide (1.9%±0.3%) diminished the number of PCNA positive cells in the neointimal layer but not in the medial layer of the carotid artery.
# Specifically, in FIG. 4, ceramide-treated catheters reduced PCNA expression in vascular smooth muscle cells after angioplasty. Smooth muscle actin expression was analyzed by immunohistochemistry utilizing a monoclonal anti-alpha smooth muscle antibody, and PCNA positive cell numbers were assessed with a primary mouse monoclonal IgG2a antibody for PCNA. […] These immunohistochemical micrographs are representative of four separate experiments. […]
# ERK2 = ERK2 phosphorylation in excised carotid arteries after angioplasty (Western blot); type: in vivo; details: ceramide-coated balloon angioplasty, rabbit carotid arteries
# Method: (§1) Thus, to elucidate mechanisms by which ceramide prevents restenosis, the phosphorylation states of ERK2 and PKBα were investigated using freshly excised carotid arteries after angioplasty (FIG. 5). Phosphorylation of ERK2 and PKBα were increased at 15 minutes and 24 hours post-balloon injury. The sustained phosphorylation of these kinases most likely reflects continuous remodeling of damaged arteries. […] Thus, acute ceramide therapy may directly modulate kinases or regulate putative ceramide-activated protein phosphatases that down-regulate these signaling pathways.
# (§2) Specifically, in FIG. 5, ERK2 and PKBα phosphorylation was diminished after ceramide-coated balloon angioplasty in rabbit carotid arteries. Panel A depicts a representative Western blot for ERK-2 and PKBα probed using phosphorylation-specific antibodies. Lysates from NIH3T3 cells treated with or without PDGF were used as positive and negative controls, respectively. This immunoblot is representative of similar experiments using a total of 8 animals. Panels B-C quantifies the immunoblot data.
# PKBα = PKBα phosphorylation in excised carotid arteries after angioplasty (Western blot); type: in vivo; details: ceramide-coated balloon angioplasty, rabbit carotid arteries
# Method: as §1, §2
# [6] = system: A7r5 aortic smooth muscle cells; details: cited from earlier work
# [7] = system: rat glomerular mesangial cells; details: cited from earlier work
# neointimal hyperplasia = assay: Angioplasty-induced injury, other cell-permeable ceramide derivatives; details: in vivo
# Excerpt: Other cell-permeable ceramide derivatives can also limit neointimal hyperplasia.
# [8] = system: primary VSM isolated from rabbit carotid arteries; assay: Apoptosis by fluorescence-activated cell sorting after propidium iodide staining; type: cell-based; details: 100 nM
# Excerpt: Ceramide treatment correlated with growth arrest at G0G1and not apoptosis in these smooth muscle-like pericytes. […] Thus, the therapeutic efficacy of cell-perneable ceramide in restenosis includes its ability to arrest VSM growth without inducing significant apoptosis.
# [9] = 15 minutes after angioplasty, inflated balloon
compound,measurement,setting,value
CCCCCCCCCCCCC/C=C/[C@@H](O)[C@H](CO)NC(=O)CCCCC [C6-ceramide],effect on neointimal hyperplasia / restenosis after balloon injury,[1],significantly reduced the neointimal hyperplasia; also recorded: blocked neointimal hyperplasia
same,inhibition of balloon-induced neointimal formation (reduction of the neointimal/medial ratio),[1],92%
same,effective concentration of ceramide at the site of balloon injury,[2]; 0.0365 cm^3 carotid artery luminal volume,~1.5 mmol/L
same,recovered mass of ceramide,[2]; 15-minute postangioplasty time point,2.7±0.4 mnol
same,radiolabel comigrating with authentic C6-ceramide standards (TLC),[2]; 15 minutes after angioplasty,89±4%
same,mass of intact ceramide isolated from carotid artery,[2]; [9],2.7 ± 0.4 nmol
same,mass of intact ceramide isolated from carotid artery,"[2]; 15 minutes after angioplasty, noninflated balloon",0.7 ± 0.2 nmol
same,recovered mass of ceramide,[2]; 60 minutes after angioplasty,1.3 ± 0.6 nmol
same,amount remaining on the balloon,[2]; after insertion and inflation,12 ± 2 nmol
same,amount applied to the balloon as a gel,"[2]; from a solution of 5 μmol of C6-ceramide, [3H] tracer",70 ± 10 nmol
same,radiolabel recovered as intact ceramide,[2]; in 1 hour,50%
same,amount transferred from the balloon catheter during angioplasty,[2]; inflated balloon,roughly 58 nmol
same,recovered ceramide mass on the balloon,[2]; inserted but noninflated balloon,14 ± 3 nmol
same,reduction of restenosis after balloon angioplasty,"[3]; three infusions of 10 μM for 1 minute each, BSA vehicle",39%
same,thrombus formation,[4],Neither ceramide- nor vehicle-treated balloon angioplasty induced thrombus formation
same,percentage of PCNA positive cells,[5],0.6%±0.2%
same,phosphorylation state of ERK2,ERK2,reduced below basal activation levels; also recorded: diminished
same,phosphorylation state of PKBα,PKBα,reduced below basal activation levels; also recorded: diminished
same,effect on tyrosine kinase receptor- and G-protein receptor-linked mitogenesis,[6],inhibit
same,effect on tyrosine kinase receptor- and G-protein receptor-linked mitogenesis,[7],inhibit
CCCCCCCCCCCCC/C=C/[C@@H](O)[C@H](CO)N(C)C [dimethylsphingosine],effect on angioplasty-induced injury,neointimal hyperplasia,effective in limiting angioplasty-induced injury
C=C1[C@@H](O)[C@@H]2O[C@]3(CC[C@H](/C=C/[C@@H](C)[C@@H]4CC(C)=C[C@@]5(O[C@H](C[C@@](C)(O)C(=O)O)CC[C@H]5O)O4)O3)CC[C@H]2O[C@@H]1[C@@H](O)C[C@H](C)[C@H]1O[C@@]2(CCCCO2)CC[C@H]1C [okadaic acid],apoptosis,[8]; 24 hours,52%
same,apoptosis,[8]; 40 hours,69%±2%
"CCCCCCCCCCCCCCC[C@@H](O)[C@H](CO)NC(=O)CCCCC [dihydro-C6-ceramide, reference compound]",effect on neointimal hyperplasia / restenosis after balloon injury,[1],did not reduce restenosis
same,effect on neointimal hyperplasia / restenosis after balloon injury,[1]; listed as dihydro-CC6-ceramide,not
same,effect upon restenotic lesions,[3]; equivalent dose,had no effect
same,percentage of PCNA positive cells,[5],1.9%±0.3%
[^3H]C6-ceramide [reference compound],radiolabel comigrating with authentic C6-ceramide standards (TLC),[2]; 15 minutes after angioplasty,89±4%
same,arterial penetrance (in situ autoradiography),[2]; [9],observed throughout the medial layers of the artery
same,"increase in medial staining (pixel density per square millimeter), inflated versus noninflated balloons","[2]; autoradiography, 10 randomly selected blocks, background subtracted",4.7±0.2 fold
